Measurements: the CheMixHub viscosity set
± gives the uncertainty stated by the source.

Assay: xn = mol fraction of the nth substance listed

C[N+](C)(C)CCO.[Cl-] + CC(O)CO
Conditions	viscosity [mPa·s]
293.15 K, 100 kPa, x1 = 0.25	89.38 ± 2
293.15 K, 101 kPa, x2 = 0.8	95.09 ± 2.8
293.15 K, 101.3 kPa, x2 = 0.7498	94.05 ± 4.2
293.15 K, 101.3 kPa, x2 = 0.8003	80.19 ± 3.5
293.15 K, 101.3 kPa, x2 = 0.8328	73.34 ± 3.1
293.15 K, 101.3 kPa, x2 = 0.8567	70.57 ± 2.9
298 K, 100 kPa, x1 = 0.333	95.5 ± 7.9
298 K, 101.3 kPa, x1 = 0.333	70 ± 2
298.15 K, 100 kPa, x1 = 0.25	68.43 ± 1.4
298.15 K, 101.3 kPa, x2 = 0.7498	72.1 ± 3.1
298.15 K, 101.3 kPa, x2 = 0.8003	61.49 ± 2.5
298.15 K, 101.3 kPa, x2 = 0.8328	57.12 ± 2.3
298.15 K, 101.3 kPa, x2 = 0.8567	55.1 ± 2.2
298.15 K, 101.33 kPa, x2 = 0.7	36 ± 4
303 K, 100 kPa, x1 = 0.333	74.2 ± 6.1
303.15 K, 100 kPa, x1 = 0.25	53.34 ± 1.1
303.15 K, 101 kPa, x2 = 0.8	56.64 ± 1.2
303.15 K, 101.3 kPa, x2 = 0.7498	56.26 ± 2.3
303.15 K, 101.3 kPa, x2 = 0.8003	47.74 ± 2
303.15 K, 101.3 kPa, x2 = 0.8328	44.41 ± 1.8
303.15 K, 101.3 kPa, x2 = 0.8567	43.01 ± 1.8
308 K, 100 kPa, x1 = 0.333	57.6 ± 4.7
308.15 K, 100 kPa, x1 = 0.25	42.26 ± 0.88
308.15 K, 101.3 kPa, x2 = 0.7498	44.5 ± 1.9
308.15 K, 101.3 kPa, x2 = 0.8003	37.47 ± 1.6
308.15 K, 101.3 kPa, x2 = 0.8328	34.61 ± 1.4
308.15 K, 101.3 kPa, x2 = 0.8567	33.33 ± 1.4
313 K, 100 kPa, x1 = 0.333	46.2 ± 3.7
313.15 K, 100 kPa, x1 = 0.25	33.93 ± 0.71
313.15 K, 101 kPa, x2 = 0.8	36.06 ± 0.77
313.15 K, 101.3 kPa, x2 = 0.7498	35.89 ± 1.5
313.15 K, 101.3 kPa, x2 = 0.8003	30.4 ± 1.3
313.15 K, 101.3 kPa, x2 = 0.8328	27.67 ± 1.1
313.15 K, 101.3 kPa, x2 = 0.8567	26.42 ± 1.1
318 K, 100 kPa, x1 = 0.333	37.9 ± 3.1
318.15 K, 100 kPa, x1 = 0.25	27.71 ± 0.58
318.15 K, 101.3 kPa, x2 = 0.7498	29.15 ± 1.2
318.15 K, 101.3 kPa, x2 = 0.8003	24.7 ± 1
318.15 K, 101.3 kPa, x2 = 0.8328	22.49 ± 0.93
318.15 K, 101.3 kPa, x2 = 0.8567	21.11 ± 0.87
323 K, 100 kPa, x1 = 0.333	31.8 ± 2.6
323 K, 101.3 kPa, x1 = 0.333	19 ± 2
323.15 K, 100 kPa, x1 = 0.25	22.88 ± 0.48
323.15 K, 101 kPa, x2 = 0.8	24.26 ± 0.53
323.15 K, 101.3 kPa, x2 = 0.7498	24.25 ± 1
323.15 K, 101.3 kPa, x2 = 0.8003	20.43 ± 0.85
323.15 K, 101.3 kPa, x2 = 0.8328	18.56 ± 0.77
323.15 K, 101.3 kPa, x2 = 0.8567	17.41 ± 0.72

c1ccc(Nc2ccccc2)cc1 + CCN(CC)c1ccccc1
viscosity [mPa·s], 101 kPa
Conditions	x1 = 0.1169	x1 = 0.2161	x1 = 0.4308	x1 = 0.5654	x1 = 0.6688	x1 = 0.7545	x1 = 0.8327	x1 = 0.949
298.15 K	2.41 ± 0.15	2.98 ± 0.19	4.63 ± 0.29	6.52 ± 0.38	8.13 ± 0.46	–	–	–
323.15 K	1.35 ± 0.09	1.58 ± 0.1	2.22 ± 0.14	2.9 ± 0.18	3.31 ± 0.21	3.82 ± 0.24	4.49 ± 0.28	5.4 ± 0.33

CCCC[N+](CCCC)(CCCC)CCCC.[Cl-] + N[C@@H](CO)C(=O)O
Conditions	viscosity [mPa·s]
323.15 K, 101 kPa, x1 = 0.9	491 ± 120

O=Cc1ccccc1 + CCCCCO
viscosity [mPa·s], 101.33 kPa
Conditions	x1 = 0.1001	x1 = 0.2014	x1 = 0.3028	x1 = 0.4151	x1 = 0.5074	x1 = 0.599	x1 = 0.7004	x1 = 0.8063	x1 = 0.9052
293.15 K	3.688 ± 0.38	3.307 ± 0.34	2.964 ± 0.32	2.626 ± 0.29	2.377 ± 0.27	2.153 ± 0.25	1.93 ± 0.23	1.722 ± 0.22	1.547 ± 0.2
303.15 K	2.699 ± 0.3	2.481 ± 0.28	2.281 ± 0.26	2.078 ± 0.25	1.924 ± 0.23	1.783 ± 0.22	1.639 ± 0.21	1.501 ± 0.2	1.383 ± 0.19
313.15 K	2.149 ± 0.25	2.007 ± 0.24	1.874 ± 0.23	1.737 ± 0.22	1.632 ± 0.21	1.534 ± 0.2	1.432 ± 0.2	1.334 ± 0.19	1.247 ± 0.18
323.15 K	1.279 ± 0.18	1.254 ± 0.18	1.229 ± 0.18	1.202 ± 0.18	1.181 ± 0.17	1.16 ± 0.17	1.137 ± 0.17	1.113 ± 0.17	1.092 ± 0.17

O=C(O)C(Cl)Cl + [Cl-].[Cl-].[Cl-].[Cl-].[Sn+4]
viscosity [mPa·s], 101 kPa
Conditions	x2 = 0.1	x2 = 0.2027	x2 = 0.3211	x2 = 0.5002	x2 = 0.805
308.15 K	3.657 ± 0.15	2.621 ± 0.11	2.121 ± 0.088	1.445 ± 0.06	0.831 ± 0.035
323.15 K	2.609 ± 0.11	1.982 ± 0.083	1.63 ± 0.068	1.09 ± 0.046	0.705 ± 0.029

O=C([O-])CC(O)(CC(=O)[O-])C(=O)[O-].[Na+].[Na+].[Na+] + O
viscosity [mPa·s]
Conditions	293.15 K	298.15 K	303.15 K
101 kPa, x1 = 0.0013	–	0.94 ± 0.008	–
101 kPa, x1 = 0.0025	–	1.033 ± 0.009	–
101 kPa, x1 = 0.0052	–	1.126 ± 0.01	–
101 kPa, x1 = 0.0067	–	1.21 ± 0.01	–
101 kPa, x1 = 0.0146	–	1.805 ± 0.016	–
101 kPa, x1 = 0.0243	–	3.067 ± 0.028	–
101 kPa, x1 = 0.0364	–	5.952 ± 0.056	–
101 kPa, x1 = 0.0518	–	9.7 ± 0.096	–
101.33 kPa, x1 = 0.002	1.087 ± 0.083	0.959 ± 0.07	0.859 ± 0.064
101.33 kPa, x1 = 0.0054	1.327 ± 0.097	1.168 ± 0.084	1.043 ± 0.074
101.33 kPa, x1 = 0.0093	1.67 ± 0.12	1.466 ± 0.1	1.305 ± 0.091
101.33 kPa, x1 = 0.0126	2.033 ± 0.15	1.78 ± 0.13	1.58 ± 0.11
101.33 kPa, x1 = 0.0165	2.569 ± 0.18	2.242 ± 0.16	1.984 ± 0.14
101.33 kPa, x1 = 0.0196	3.097 ± 0.23	2.696 ± 0.2	2.379 ± 0.17
101.33 kPa, x1 = 0.0232	3.855 ± 0.28	3.346 ± 0.24	2.944 ± 0.21
101.33 kPa, x1 = 0.0269	4.836 ± 0.35	4.185 ± 0.3	3.67 ± 0.26
101.33 kPa, x1 = 0.0297	5.748 ± 0.44	4.963 ± 0.38	4.341 ± 0.33
101.33 kPa, x1 = 0.0335	7.277 ± 0.54	6.263 ± 0.46	5.46 ± 0.39
101.33 kPa, x1 = 0.0366	8.834 ± 0.62	7.583 ± 0.55	6.593 ± 0.45

CCCC[P+](CCCC)(CCCC)CCCC.[Cl-] + O
Conditions	viscosity [mPa·s]
298.15 K, 100 kPa, x1 = 0.008058	1.485 ± 0.031

CCCCCCCCCCCCO + CCCCCCC
viscosity [mPa·s], 101.33 kPa
Conditions	298.15 K	308.15 K
x1 = 0.0343	0.4411 ± 0.0041	0.3932 ± 0.0037
x1 = 0.0687	0.514 ± 0.0046	0.4523 ± 0.0042
x1 = 0.1389	0.7038 ± 0.0061	0.6054 ± 0.0053
x1 = 0.2173	0.9825 ± 0.0084	0.8279 ± 0.0071
x1 = 0.2965	1.372 ± 0.012	1.126 ± 0.0095
x1 = 0.392	2.04 ± 0.018	1.632 ± 0.014
x1 = 0.4898	2.746 ± 0.025	2.224 ± 0.019
x1 = 0.5941	4.056 ± 0.038	3.199 ± 0.029
x1 = 0.7213	5.958 ± 0.06	4.858 ± 0.046
x1 = 0.7853	7.414 ± 0.079	5.854 ± 0.057
x1 = 0.8475	9.506 ± 0.11	7.073 ± 0.072
x1 = 0.9227	11.73 ± 0.14	8.856 ± 0.094

COC(=O)OCC(F)(F)F + CC1COC(=O)O1
298.15 K, 100 kPa
Conditions	viscosity [mPa·s]
x2 = 0.0999	1.13 ± 0.024
x2 = 0.2012	1.26 ± 0.027
x2 = 0.3	1.38 ± 0.03
x2 = 0.3991	1.51 ± 0.033
x2 = 0.5012	1.66 ± 0.036
x2 = 0.6016	1.82 ± 0.039
x2 = 0.699	2 ± 0.043
x2 = 0.7994	2.18 ± 0.047
x2 = 0.9002	2.36 ± 0.051

Fc1ccccc1 + CC(=O)OCCC(C)C
viscosity [mPa·s], 101 kPa
Conditions	x2 = 0.0669	x2 = 0.1372	x2 = 0.2148	x2 = 0.2975	x2 = 0.3897	x2 = 0.4843	x2 = 0.5939	x2 = 0.713	x2 = 0.8486
303.15 K	0.541 ± 0.011	0.565 ± 0.011	0.591 ± 0.011	0.613 ± 0.011	0.637 ± 0.011	0.661 ± 0.011	0.682 ± 0.011	0.706 ± 0.011	0.727 ± 0.011
313.15 K	0.48 ± 0.011	0.501 ± 0.011	0.524 ± 0.011	0.543 ± 0.011	0.561 ± 0.011	0.579 ± 0.011	0.597 ± 0.011	0.613 ± 0.011	0.629 ± 0.011
